The source made the active and inactive calls.

The source of these data is ChEMBL document CHEMBL1201862, “PubChem BioAssay data set” (2004).

System in the first assay: not listed separately
Put plainly: Luminescence Cell-Based Dose Retest to Confirm Inhibitors of Cancer Stem Cells. [Related pubchem assays (depositor defined):AID2717, AID2721]. Format: functional. The conditions noted are these: Homo sapiens.
As usually defined, the AC50 is the midpoint of the concentration-response curve, whichever way the signal moves. Turning to `CN(C)CCNc1nc2sc3c(c2c(=O)n1-c1ccccc1)CCCCC3`, the AC50 was 4.27 µM (active). On the same count and under the same terms, then `COc1ccc(-c2sc3ccccc3c2/C=C/c2ccc(N)cc2)cc1`, with 3.98 µM (active); and `COc1ccc(CCNc2cc(C)nc3c(-c4ccc(Cl)cc4)c(C)nn23)cc1OC`, with 2.88 µM (active).

Regarding `CCCc1cc(-c2nc(-c3ccc(C)cc3)cs2)ccn1`, the AC50 is 3.62 µM (active).

In the case of `CN(C)CCOc1ccc(C(C)(C)c2ccccc2)cc1`, the AC50 is 1.96 µM (active). The same measure, in the same setting: in the case of `CN1CCN(c2ccc([N+](=O)[O-])c(NCc3ccco3)c2)CC1` it was 0.512 µM (active); in that of `CCCCCCSc1cccc(-c2nc3ccc(Cl)cn3c2NCc2ccccc2)c1`, 1.55 µM (active). On the same count and under the same terms, in the case of `CC1CCCN(c2ccc(C(=O)N3CCC4(CC3)OCCO4)cc2[N+](=O)[O-])C1` (stereo unspecified) it was 4.55 µM (active); in that of `CC(C)c1cccc(C(C)C)c1OC(=O)[C@H]1OC(c2ccc(Br)cc2)=C[C@@H]1c1ccc(Br)cc1`, 3.58 µM (active).

The target of another assay is Cytochrome P450 2C19 (Homo sapiens, UniProt P33261). Put plainly: Cytochrome panel assay with activity outcomes. Panel member name: p450-cyp2c19 Compounds with AC50 equal or less than 10 uM are considered active. The class given is functional. Conditions: read-out: AC50.
Sequence of Cytochrome P450 2C19 (P33261 whole entry): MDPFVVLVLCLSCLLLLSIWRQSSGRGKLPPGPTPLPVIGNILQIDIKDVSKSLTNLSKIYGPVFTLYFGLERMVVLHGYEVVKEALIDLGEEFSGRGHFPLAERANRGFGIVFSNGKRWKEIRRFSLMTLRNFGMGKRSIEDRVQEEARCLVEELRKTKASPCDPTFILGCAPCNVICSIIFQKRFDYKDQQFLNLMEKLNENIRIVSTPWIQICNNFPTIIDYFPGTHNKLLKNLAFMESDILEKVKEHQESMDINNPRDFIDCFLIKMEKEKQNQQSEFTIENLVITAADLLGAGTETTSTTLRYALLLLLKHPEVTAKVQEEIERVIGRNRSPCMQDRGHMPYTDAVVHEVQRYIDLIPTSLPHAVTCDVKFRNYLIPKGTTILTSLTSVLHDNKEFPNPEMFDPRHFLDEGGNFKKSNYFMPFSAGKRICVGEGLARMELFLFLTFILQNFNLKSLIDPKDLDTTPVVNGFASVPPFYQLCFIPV
As to `O=C(CCCC1=NS(=O)(=O)c2ccccc2N1)N1CCC2(CC1)OCCO2`, the AC50 is 17.8 µM (inconclusive).

In the case of `O=C(Nc1cccc([N+](=O)[O-])c1)c1ccc(CSc2ccccc2)cc1`, the AC50 was 14.1 µM (inconclusive). Still for that read-out and setting: in the case of `Cn1cccc1C(=O)N1CCC[C@@]2(CCN(Cc3cc(C(F)(F)F)cc(C(F)(F)F)c3)C2)C1` it was 39.8 µM (inconclusive). The same measure, in the same setting: then `COCCn1c(C(=O)N2CCCC2)cc2c1C[C@H]1CN(C(=O)c3ccccc3)[C@@](Cc3ccc(OC)cc3)(C(=O)OC)[C@@H]21`, with 39.8 µM (inconclusive); and `CS(=O)(=O)N1CCC[C@@]2(CCN(Cc3nccs3)C2)C1`, with 39.8 µM (inconclusive).

With `CCOC(=O)CC1C(=O)NCCN1S(=O)(=O)c1ccccc1Cl` (stereo unspecified), the AC50 is 11.2 µM (inconclusive).

In another assay the target is Cytochrome P450 2D6 (Homo sapiens, UniProt P10635).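 Further: CYP2D6 member of a cytochrome P450 panel assay.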
Sequence of Cytochrome P450 2D6 (P10635 whole entry): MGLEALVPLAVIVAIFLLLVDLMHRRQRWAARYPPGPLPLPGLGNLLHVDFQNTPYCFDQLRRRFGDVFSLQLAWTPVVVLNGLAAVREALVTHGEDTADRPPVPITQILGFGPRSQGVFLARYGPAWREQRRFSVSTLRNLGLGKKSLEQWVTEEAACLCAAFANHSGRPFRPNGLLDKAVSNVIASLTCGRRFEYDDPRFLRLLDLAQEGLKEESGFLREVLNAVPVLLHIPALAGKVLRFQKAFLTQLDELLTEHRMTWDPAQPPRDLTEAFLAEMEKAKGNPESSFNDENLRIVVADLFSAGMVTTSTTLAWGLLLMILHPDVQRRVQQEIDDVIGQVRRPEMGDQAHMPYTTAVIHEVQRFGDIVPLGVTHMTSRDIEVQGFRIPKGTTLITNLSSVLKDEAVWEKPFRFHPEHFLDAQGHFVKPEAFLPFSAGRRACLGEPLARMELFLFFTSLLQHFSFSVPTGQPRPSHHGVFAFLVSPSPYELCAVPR
Conditions: not given
Take `CCc1cc2c(nc1CC)CCN(CC/C(C)=N/OC[C@@H](O)COCc1ccco1)C2`: the AC50 is 3.98 µM (inconclusive). As for `CN(C)c1ncnc2ccc(-c3ccccc3C(F)(F)F)cc12`, the AC50 is 15.8 µM (inconclusive). As for `CCOC(=O)n1c(=O)n(Cc2ccccc2Cl)c2ccccc21`, the AC50 is 28.2 µM (inconclusive).

On to `CS(=O)(=O)N1CCC[C@@]2(CCN(Cc3nccs3)C2)C1`, for which the AC50 is 39.8 µM (inconclusive). For the compound `CCOC(=O)CC1C(=O)NCCN1S(=O)(=O)c1ccccc1Cl` (stereo unspecified), the AC50 is 0.891 µM (inconclusive). On the same count and under the same terms, then `N[C@H]1C[C@H]1c1ccccc1`, with 12.6 µM (inconclusive).

In the next assay the target is Cytochrome P450 3A4 (Homo sapiens, UniProt P08684).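 Further: CYP3A4 tested as one member of a cytochrome P450 panel screen.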
Sequence of Cytochrome P450 3A4 (P08684 whole entry): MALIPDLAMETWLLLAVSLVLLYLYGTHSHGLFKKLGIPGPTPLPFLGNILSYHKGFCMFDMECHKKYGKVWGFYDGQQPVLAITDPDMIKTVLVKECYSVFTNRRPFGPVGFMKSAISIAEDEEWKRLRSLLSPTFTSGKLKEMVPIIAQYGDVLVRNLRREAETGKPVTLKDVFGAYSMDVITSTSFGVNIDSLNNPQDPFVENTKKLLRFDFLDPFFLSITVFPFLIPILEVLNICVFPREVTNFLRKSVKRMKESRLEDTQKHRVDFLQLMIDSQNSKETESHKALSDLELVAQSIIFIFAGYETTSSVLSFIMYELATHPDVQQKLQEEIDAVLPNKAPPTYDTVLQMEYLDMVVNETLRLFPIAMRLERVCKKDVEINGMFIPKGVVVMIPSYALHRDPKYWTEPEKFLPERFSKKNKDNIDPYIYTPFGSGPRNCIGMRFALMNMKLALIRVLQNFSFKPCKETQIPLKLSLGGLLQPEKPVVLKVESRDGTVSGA
Conditions: not given
As to `N[C@H](Cc1ccc2oc3cc(=O)c4ccccc4c-3nc2c1)C(=O)O`, the AC50 was 3.98 µM (inconclusive). The same measure, in the same setting: in the case of `Cc1ccccc1OCCNC=C1C(=O)N(C)C(=O)N(C)C1=O` it was 20 µM (inconclusive); in that of `CCc1cc2c(nc1CC)CCN(CC/C(C)=N/OC[C@@H](O)COCc1ccco1)C2`, 3.16 µM (inconclusive). The same measure, in the same setting: then `CN(C)c1ncnc2ccc(-c3ccccc3C(F)(F)F)cc12`, with 10 µM (inconclusive). Same read-out and setting: then `O=C(CCCC1=NS(=O)(=O)c2ccccc2N1)N1CCC2(CC1)OCCO2`, with 35.5 µM (inconclusive); and `O=C(Nc1cccc([N+](=O)[O-])c1)c1ccc(CSc2ccccc2)cc1`, with 20 µM (inconclusive); and `CCOC(=O)n1c(=O)n(Cc2ccccc2Cl)c2ccccc21`, with 15.8 µM (inconclusive). In the case of `O=[N+]([O-])c1cc(F)c(N2CCOCC2)cc1N1CCCCC1`, the AC50 was 17.8 µM (inconclusive).

For `COCC(=O)N1CCC2(CCCN(c3ccncc3)C2)CC1`, the AC50 is 25.1 µM (inconclusive).

`O=C(C[C@H](c1ccccc1)c1c(O)c2ccccc2oc1=O)c1ccccc1`: the AC50 was 3.16 µM (inconclusive). Same read-out and setting: then `CO[C@@H]1COC(=O)[C@@H](CCSC)NC(=O)C/C=C\[C@@H](C)COC(=O)CCC[C@H]1C`, with 3.98 µM (inconclusive); and `CS(=O)(=O)N1CCC[C@@]2(CCN(Cc3nccs3)C2)C1`, with 12.6 µM (inconclusive); and `CCOC(=O)CC1C(=O)NCCN1S(=O)(=O)c1ccccc1Cl` (stereo unspecified), with 14.1 µM (inconclusive).

The target of a further assay is Cytochrome P450 2C9 (Homo sapiens, UniProt P11712).
Sequence of Cytochrome P450 2C9 (P11712 whole entry): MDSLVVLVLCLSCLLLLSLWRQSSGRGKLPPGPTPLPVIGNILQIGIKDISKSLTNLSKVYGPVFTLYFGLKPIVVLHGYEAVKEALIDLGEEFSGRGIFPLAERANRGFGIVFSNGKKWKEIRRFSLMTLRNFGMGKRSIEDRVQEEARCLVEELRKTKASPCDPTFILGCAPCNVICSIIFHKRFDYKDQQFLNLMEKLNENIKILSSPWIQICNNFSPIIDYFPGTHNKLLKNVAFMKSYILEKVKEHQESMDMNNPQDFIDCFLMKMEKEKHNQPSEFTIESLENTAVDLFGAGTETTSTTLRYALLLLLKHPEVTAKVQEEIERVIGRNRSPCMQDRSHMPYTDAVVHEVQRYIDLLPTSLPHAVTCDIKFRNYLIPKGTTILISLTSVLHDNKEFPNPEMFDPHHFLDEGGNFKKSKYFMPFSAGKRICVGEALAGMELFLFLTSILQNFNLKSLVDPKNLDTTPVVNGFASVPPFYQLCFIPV
Conditions: not given
With `Cc1ccccc1OCCNC=C1C(=O)N(C)C(=O)N(C)C1=O`, the AC50 is 0.0126 µM (inconclusive). Still for that read-out and setting: then `O=C(CCCC1=NS(=O)(=O)c2ccccc2N1)N1CCC2(CC1)OCCO2`, with 25.1 µM (inconclusive); and `O=C(Nc1cccc([N+](=O)[O-])c1)c1ccc(CSc2ccccc2)cc1`, with 0.562 µM (inconclusive). Still for that read-out and setting: in the case of `Cn1cccc1C(=O)N1CCC[C@@]2(CCN(Cc3cc(C(F)(F)F)cc(C(F)(F)F)c3)C2)C1` it was 39.8 µM (inconclusive); in that of `COCCn1c(C(=O)N2CCCC2)cc2c1C[C@H]1CN(C(=O)c3ccccc3)[C@@](Cc3ccc(OC)cc3)(C(=O)OC)[C@@H]21`, 39.8 µM (inconclusive).

`CCOC(=O)CC1C(=O)NCCN1S(=O)(=O)c1ccccc1Cl` (stereo unspecified): the AC50 is 0.00562 µM (inconclusive).

On to `N[C@H]1C[C@H]1c1ccccc1`, for which the AC50 is 12.6 µM (inconclusive).
